Laboratory results from patent publication US8288552B2, “Dihydropyridone amidesas P2X7 modulators” (Roche Palo Alto LLC, priority 2008, dated 2012).

target: T1, P2X7 (UniProt Q99572); assay: P2X7 pKi of Table 1; format: cell-based
T1 sequence (Q99572 1-595): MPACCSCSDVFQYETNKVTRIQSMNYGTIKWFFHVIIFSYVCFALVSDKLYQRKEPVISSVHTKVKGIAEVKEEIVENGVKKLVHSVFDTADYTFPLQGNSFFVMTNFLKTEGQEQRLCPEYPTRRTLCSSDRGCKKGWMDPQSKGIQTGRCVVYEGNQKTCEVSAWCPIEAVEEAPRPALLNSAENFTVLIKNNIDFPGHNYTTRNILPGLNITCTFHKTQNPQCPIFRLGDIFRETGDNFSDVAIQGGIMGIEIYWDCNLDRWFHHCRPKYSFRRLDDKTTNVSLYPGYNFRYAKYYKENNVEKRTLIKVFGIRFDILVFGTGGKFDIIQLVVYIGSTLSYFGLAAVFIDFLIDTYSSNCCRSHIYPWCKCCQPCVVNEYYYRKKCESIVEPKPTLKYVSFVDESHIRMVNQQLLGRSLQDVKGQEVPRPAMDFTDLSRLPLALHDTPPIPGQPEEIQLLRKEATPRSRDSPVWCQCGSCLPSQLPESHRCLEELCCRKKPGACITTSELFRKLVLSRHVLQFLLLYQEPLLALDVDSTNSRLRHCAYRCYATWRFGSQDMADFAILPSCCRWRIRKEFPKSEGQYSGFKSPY
How it was run: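 Human P2X7 in 1321N1 cells and rat P2X7 in HEK293 cells, loaded with fluo-3 for 1 hr at 37° C, then exposed to antagonist for 20 min at room temperature. BzATP agonist was used at 100 μM final (human) or 5 μM final (rat), with fluorescence read for 5 min. The response was normalized to maximal fluorescence evoked by 5 μM ionomycin.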

| Structure (SMILES) | pKi |
| --- | --- |
| Cc1cc(Cl)c(NC(=O)C2=CNC(=O)C[C@H]2c2ccc(F)cc2)cc1OCCO [Compound 129, (S)-4-(4-Fluoro-phenyl)-6-oxo-1,4,5,6-tetrahydro-pyridine-3-carboxylic acid[2-chloro-5-(2-hydroxy-ethoxy)-4-methyl-phenyl]-amide] | 7.265 |
| Cc1cc(Cl)c(OCC(=O)N(C)C)cc1NC(=O)C1=CNC(=O)C[C@H]1c1ccc(F)cc1 [Compound 130, (S)-4-(4-Fluoro-phenyl)-6-oxo-1,4,5,6-tetrahydro-pyridine-3-carboxylic acid(4-chloro-5-dimethylcarbamoyl-methoxy-2-methyl-phenyl)-amide] | 7.2767 |
| COc1cc(C)c(NC(=O)C2=CNC(=O)C[C@H]2c2ccc(Cl)cc2)cc1OC [Compound 131, (S)-4-(4-Chloro-phenyl)-6-oxo-1,4,5,6-tetrahydro-pyridine-3-carboxylic acid (4,5-dimethoxy-2-methyl-phenyl)-amide] | 6.165 |
| COc1cc(C)c(NC(=O)C2=CNC(=O)C[C@@H]2c2ccc(Cl)cc2)cc1OC [Compound 132, (R)-4-(4-Chloro-phenyl)-6-oxo-1,4,5,6-tetrahydro-pyridine-3-carboxylic acid (4,5-dimethoxy-2-methyl-phenyl)-amide] | 6.38 |
| COc1ccc(NC(=O)C2=CNC(=O)C[C@H]2c2ccc(F)cc2)cc1OC [Compound 133, (S)-4-(4-Fluoro-phenyl)-6-oxo-1,4,5,6-tetrahydro-pyridine-3-carboxylic acid (3,4-dimethoxy-phenyl)-amide] | 6.04 |
| CNC(=O)COc1cc(NC(=O)C2=CNC(=O)C[C@H]2c2ccc(F)cc2)c(C)cc1Cl [Compound 134, (S)-4-(4-Fluoro-phenyl)-6-oxo-1,4,5,6-tetrahydro-pyridine-3-carboxylic acid(4-chloro-2-methyl-5-methylcarbamoylmethoxy-phenyl)-amide] | 6.24 |
| Cc1ccc(C(N)=O)cc1NC(=O)C1=CNC(=O)C[C@H]1c1ccc(F)cc1 [Compound 135, (S)-4-(4-Fluoro-phenyl)-6-oxo-1,4,5,6-tetrahydro-pyridine-3-carboxylic acid(5-carbamoyl-2-methyl-phenyl)-amide] | 5.8767 |
| O=C1CC(c2ccccc2)C(C(=O)NC2CCc3ccccc32)=CN1 (stereo not drawn) [Compound 136, 6-Oxo-4-phenyl-1,4,5,6-tetrahydro-pyridine-3-carboxylic acid indan-1-ylamide] | 5.412 |
| O=C1CC(c2cccc(F)c2)C(C(=O)Nc2cc3c(cc2Cl)OC(F)(F)O3)=CN1 (stereo not drawn) [Compound 137, 4-(3-Fluoro-phenyl)-6-oxo-1,4,5,6-tetrahydro-pyridine-3-carboxylic acid(6-chloro-2,2-difluoro-benzo[1,3]dioxol-5-yl)-amide] | 4.98 |
| O=C1CC(c2ccc(F)cc2)C(C(=O)Nc2cc3c(cc2Br)OCCO3)=CN1 (stereo not drawn) [Compound 138, 4-(4-Fluoro-phenyl)-6-oxo-1,4,5,6-tetrahydro-pyridine-3-carboxylic acid(7-bromo-2,3-dihydro-benzo[1,4]dioxin-6-yl)-amide] | 6.69 |
| O=C1CC(c2ccc(F)cc2)C(C(=O)Nc2cc3c(cc2Cl)OC(F)(F)O3)=CN1 (stereo not drawn) [Compound 139, 4-(4-Fluoro-phenyl)-6-oxo-1,4,5,6-tetrahydro-pyridine-3-carboxylic acid(6-chloro-2,2-difluoro-benzo[1,3]dioxol-5-yl)-amide] | 5.46 |
| Cc1cc2c(cc1NC(=O)C1=CNC(=O)C[C@H]1c1ccc(F)cc1)OCCO2 [Compound 140, (S)-4-(4-Fluoro-phenyl)-6-oxo-1,4,5,6-tetrahydro-pyridine-3-carboxylic acid(7-methyl-2,3-dihydro-benzo[1,4]dioxin-6-yl)-amide] | 6.94 |
| Cc1cc(F)c(OCCO)cc1NC(=O)C1=CNC(=O)C[C@H]1c1ccc(F)cc1 [Compound 141, (S)-4-(4-Fluoro-phenyl)-6-oxo-1,4,5,6-tetrahydro-pyridine-3-carboxylic acid[4-fluoro-5-(2-hydroxy-ethoxy)-2-methyl-phenyl]-amide] | 7.285 |
| Cc1cc(Cl)c(OCCO)cc1NC(=O)C1=CN(C)C(=O)C[C@H]1c1ccc(F)cc1 [Compound 142, (S)-4-(4-Fluoro-phenyl)-1-methyl-6-oxo-1,4,5,6-tetrahydro-pyridine-3-carboxylic acid[4-chloro-5-(2-hydroxy-ethoxy)-2-methyl-phenyl]-amide] | 6.835 |
| Cc1cc(F)c(OCCO)cc1NC(=O)C1=CN(C)C(=O)C[C@H]1c1ccc(F)cc1 [Compound 143, (S)-4-(4-Fluoro-phenyl)-1-methyl-6-oxo-1,4,5,6-tetrahydro-pyridine-3-carboxylic acid[4-fluoro-5-(2-hydroxy-ethoxy)-2-methyl-phenyl]-amide] | 6.535 |
| CCN1C=C(C(=O)Nc2cc(OC)c(OC)cc2C)[C@H](c2ccc(F)cc2)CC1=O [Compound 144, (S)-1-Ethyl-4-(4-fluoro-phenyl)-6-oxo-1,4,5,6-tetrahydro-pyridine-3-carboxylic acid(4,5-dimethoxy-2-methyl-phenyl)-amide] | 7.06 |
| CCOC(=O)Cc1ccc(C)c(NC(=O)C2=CNC(=O)C[C@H]2c2ccc(F)cc2)c1 [Compound 145, (3-{[(S)-4-(4-Fluoro-phenyl)-6-oxo-1,4,5,6-tetrahydro-pyridine-3-carbonyl]-amino}-4-methyl-phenyl)-acetic acid ethyl ester] | 6.55 |
| COc1cc(C)c(NC(=O)C2=CN(CCO)C(=O)C[C@H]2c2ccc(F)cc2)cc1OC [Compound 146, (S)-4-(4-Fluoro-phenyl)-1-(2-hydroxy-ethyl)-6-oxo-1,4,5,6-tetrahydro-pyridine-3-carboxylic acid(4,5-dimethoxy-2-methyl-phenyl)-amide] | 7.71 |
| COC[C@@H](O)COc1cc(NC(=O)C2=CN(C)C(=O)C[C@H]2c2ccc(F)cc2)c(C)cc1Cl [Compound 147, (S)-4-(4-Fluoro-phenyl)-1-methyl-6-oxo-1,4,5,6-tetrahydro-pyridine-3-carboxylic acid[4-chloro-5-((S)-2-hydroxy-3-methoxy-propoxy)-2-methyl-phenyl]-amide] | 5.85 |
| COC[C@@H](O)COc1cc(NC(=O)C2=CNC(=O)C[C@H]2c2ccc(F)cc2)c(C)cc1Cl [Compound 148, (S)-4-(4-Fluoro-phenyl)-6-oxo-1,4,5,6-tetrahydro-pyridine-3-carboxylic acid[4-chloro-5-((S)-2-hydroxy-3-methoxy-propoxy)-2-methyl-phenyl]-amide] | 6.49 |
| COC[C@@H](O)COc1cc(NC(=O)C2=CN(C)C(=O)C[C@H]2c2cccc(F)c2)c(C)cc1Cl [Compound 149, (S)-4-(3-Fluoro-phenyl)-1-methyl-6-oxo-1,4,5,6-tetrahydro-pyridine-3-carboxylic acid[4-chloro-5-((S)-2-hydroxy-3-methoxy-propoxy)-2-methyl-phenyl]-amide] | 6.035 |
